SMILES strings stand for the structures.

In US11639343B2, “Compounds targeting and degrading BCR-ABL protein and its antitumor application” (ShanghaiTech University, priority 2019, dated 2023) one finds IC50 and DC50 data, which are given here for twelve molecules.

The test system of experiment [1] is K562 (BCR-ABL+) cells. The experiment is described as follows: CCK-8 proliferation inhibition, K562 cells.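 Further: Ten-point threefold dilution series starting at 10 µM, absorbance at 450 nm after 2 h with CCK-8, DMSO as negative control.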 The class given is cell-based, human. The following applies: Homo sapiens, K562, 48 h, CCK-8, 48 hours of drug treatment; read-out: Proliferative inhibitory activity (IC50, nM) K562 (BCR-ABL+).
Experiment [2] has as its system U937 (BCR-ABL-) cells. The experiment can be described thus: CCK-8 proliferation inhibition, U937 cells.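 Further: Ten-point threefold dilution series, absorbance at 450 nm after 2 h with CCK-8 reagent, DMSO as negative control.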 The note with it: Homo sapiens, U-937; CCK-8, 48 hours of drug treatment, highest concentration 10 μM; read-out: Proliferative inhibitory activity (IC50, nM) U937 (BCR-ABL-). The class given is cell-based, human.
Experiment [3] has as its system HEK293 (BCR-ABL-) cells. The experiment is described as follows: CCK-8 proliferation inhibition, HEK293 cells.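 Further: Ten-point threefold dilution series starting at 10 µM, CCK-8 absorbance at 450 nm read after 2 h reagent incubation, DMSO-treated cells as negative control.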 The following applies: Homo sapiens, HEK293, 48 h, read-out: Proliferative inhibitory activity (IC50, nM) HEK293 (BCR-ABL-).
For experiment [4], the target named is c-ABL protein (Homo sapiens, UniProt P00519). The experiment is described as follows: Western blot degradation of c-ABL in K562 cells. The arrangement: Western blot was used to detect the expression of BCR-ABL and c-ABL protein in K562 cells; endogenous in cells; host or cells: K562. The class given is cell-based. The note with it: 16 hours, 1 nM-10 μM. The procedure: (§1) (1) Cell seed: K562 cells were added to the 24 well plates, with a cell density of 3×10^5/ml and a total volume of 1.5 ml; Five concentration gradients, 1 nm, 10 nm, 100 nm, 1 μM, and 10 μM, were respectively set for PROTAD series compounds and comparative examples compounds (Dasa-6-2-2-6-VHL, Dasa-6-2-6-CRBN). […] After 16 hours of drug treatment, the cells were collected in 1.5 ml ep tube, centrifuged at 3000 rpm for 3 minutes, and then added 30 μL PBS and 30 ul 2×SDS to cell precipitated, lysate Heat at 100° C. for 5 minutes, then place on ice for 5 minutes, centrifuged at 10000 rpm for 5 minutes, and take the supernatant as the total protein extracted. The protein concentration was determined by the Bradford method. After each sample was at the same concentration, bromophenol blue was added as the sample indicator.
Sequence of c-ABL protein (P00519 whole entry): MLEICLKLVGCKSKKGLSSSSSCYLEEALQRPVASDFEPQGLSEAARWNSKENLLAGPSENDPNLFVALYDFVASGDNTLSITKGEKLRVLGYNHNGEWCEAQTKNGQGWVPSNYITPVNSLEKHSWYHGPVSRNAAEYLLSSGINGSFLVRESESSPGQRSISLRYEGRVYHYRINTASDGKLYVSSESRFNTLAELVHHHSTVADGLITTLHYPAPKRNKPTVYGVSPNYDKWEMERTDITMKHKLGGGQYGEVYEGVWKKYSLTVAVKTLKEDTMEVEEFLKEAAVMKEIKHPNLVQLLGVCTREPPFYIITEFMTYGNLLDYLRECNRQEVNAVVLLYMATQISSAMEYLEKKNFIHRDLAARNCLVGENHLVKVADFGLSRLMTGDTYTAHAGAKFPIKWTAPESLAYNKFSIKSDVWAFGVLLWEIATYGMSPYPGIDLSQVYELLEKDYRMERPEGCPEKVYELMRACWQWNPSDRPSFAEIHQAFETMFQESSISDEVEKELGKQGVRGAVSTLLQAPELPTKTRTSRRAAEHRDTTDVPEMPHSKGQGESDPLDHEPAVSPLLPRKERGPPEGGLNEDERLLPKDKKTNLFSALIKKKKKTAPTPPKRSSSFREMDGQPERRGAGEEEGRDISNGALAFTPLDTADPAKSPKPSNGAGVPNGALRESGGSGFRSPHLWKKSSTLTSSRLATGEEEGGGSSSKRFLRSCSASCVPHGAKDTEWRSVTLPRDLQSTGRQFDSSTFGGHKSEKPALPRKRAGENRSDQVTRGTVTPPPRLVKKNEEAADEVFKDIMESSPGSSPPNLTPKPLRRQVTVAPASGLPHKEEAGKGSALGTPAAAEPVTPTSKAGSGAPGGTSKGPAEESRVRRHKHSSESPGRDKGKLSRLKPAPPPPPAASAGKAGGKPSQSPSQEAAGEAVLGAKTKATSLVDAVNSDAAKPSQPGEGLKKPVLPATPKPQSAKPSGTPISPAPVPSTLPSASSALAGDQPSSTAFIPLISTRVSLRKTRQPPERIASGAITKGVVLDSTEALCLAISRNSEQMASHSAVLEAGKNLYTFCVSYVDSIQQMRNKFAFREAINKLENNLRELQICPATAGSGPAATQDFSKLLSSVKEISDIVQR
(§2) (2) Electrophoresis: the starting voltage of the BioRad electrophoresis instrument was 80V, and as the dye enters the separation gel, the voltage was adjusted to 120V;
(§3) (3) Film transfer: prepare filter paper and nitrocellulose membrane with the corresponding size of the gel, filter paper, and NC film were soaked in transfer electrophoresis buffer.
(§4) DC50 (concentration required to degrade protein by half) were calculated based on the intensity from western blot, and data were analyzed via Prism GraphPad with non-linear regression.
(Immunoblotting shows a protein as a band on a membrane.)

In experiment [5] the target is BCR-ABL protein (Homo sapiens, UniProt P00519). The experiment is described as follows: Western blot degradation of BCR-ABL in K562 cells. The class given is cell-based. Also noted: Western blot was used to detect the expression of BCR-ABL and c-ABL protein in K562 cells; BCR (fusion partner, P11274); endogenous in cells; host or cells: K562; the other entry of the earlier key: BCR (P11274, Breakpoint cluster region protein). The following applies: 16 hours, 1 nM-10 μM. The procedure:
as §1, §2, §3, §4

Sequence of BCR-ABL protein (P00519 with tags, fused parts or gaps): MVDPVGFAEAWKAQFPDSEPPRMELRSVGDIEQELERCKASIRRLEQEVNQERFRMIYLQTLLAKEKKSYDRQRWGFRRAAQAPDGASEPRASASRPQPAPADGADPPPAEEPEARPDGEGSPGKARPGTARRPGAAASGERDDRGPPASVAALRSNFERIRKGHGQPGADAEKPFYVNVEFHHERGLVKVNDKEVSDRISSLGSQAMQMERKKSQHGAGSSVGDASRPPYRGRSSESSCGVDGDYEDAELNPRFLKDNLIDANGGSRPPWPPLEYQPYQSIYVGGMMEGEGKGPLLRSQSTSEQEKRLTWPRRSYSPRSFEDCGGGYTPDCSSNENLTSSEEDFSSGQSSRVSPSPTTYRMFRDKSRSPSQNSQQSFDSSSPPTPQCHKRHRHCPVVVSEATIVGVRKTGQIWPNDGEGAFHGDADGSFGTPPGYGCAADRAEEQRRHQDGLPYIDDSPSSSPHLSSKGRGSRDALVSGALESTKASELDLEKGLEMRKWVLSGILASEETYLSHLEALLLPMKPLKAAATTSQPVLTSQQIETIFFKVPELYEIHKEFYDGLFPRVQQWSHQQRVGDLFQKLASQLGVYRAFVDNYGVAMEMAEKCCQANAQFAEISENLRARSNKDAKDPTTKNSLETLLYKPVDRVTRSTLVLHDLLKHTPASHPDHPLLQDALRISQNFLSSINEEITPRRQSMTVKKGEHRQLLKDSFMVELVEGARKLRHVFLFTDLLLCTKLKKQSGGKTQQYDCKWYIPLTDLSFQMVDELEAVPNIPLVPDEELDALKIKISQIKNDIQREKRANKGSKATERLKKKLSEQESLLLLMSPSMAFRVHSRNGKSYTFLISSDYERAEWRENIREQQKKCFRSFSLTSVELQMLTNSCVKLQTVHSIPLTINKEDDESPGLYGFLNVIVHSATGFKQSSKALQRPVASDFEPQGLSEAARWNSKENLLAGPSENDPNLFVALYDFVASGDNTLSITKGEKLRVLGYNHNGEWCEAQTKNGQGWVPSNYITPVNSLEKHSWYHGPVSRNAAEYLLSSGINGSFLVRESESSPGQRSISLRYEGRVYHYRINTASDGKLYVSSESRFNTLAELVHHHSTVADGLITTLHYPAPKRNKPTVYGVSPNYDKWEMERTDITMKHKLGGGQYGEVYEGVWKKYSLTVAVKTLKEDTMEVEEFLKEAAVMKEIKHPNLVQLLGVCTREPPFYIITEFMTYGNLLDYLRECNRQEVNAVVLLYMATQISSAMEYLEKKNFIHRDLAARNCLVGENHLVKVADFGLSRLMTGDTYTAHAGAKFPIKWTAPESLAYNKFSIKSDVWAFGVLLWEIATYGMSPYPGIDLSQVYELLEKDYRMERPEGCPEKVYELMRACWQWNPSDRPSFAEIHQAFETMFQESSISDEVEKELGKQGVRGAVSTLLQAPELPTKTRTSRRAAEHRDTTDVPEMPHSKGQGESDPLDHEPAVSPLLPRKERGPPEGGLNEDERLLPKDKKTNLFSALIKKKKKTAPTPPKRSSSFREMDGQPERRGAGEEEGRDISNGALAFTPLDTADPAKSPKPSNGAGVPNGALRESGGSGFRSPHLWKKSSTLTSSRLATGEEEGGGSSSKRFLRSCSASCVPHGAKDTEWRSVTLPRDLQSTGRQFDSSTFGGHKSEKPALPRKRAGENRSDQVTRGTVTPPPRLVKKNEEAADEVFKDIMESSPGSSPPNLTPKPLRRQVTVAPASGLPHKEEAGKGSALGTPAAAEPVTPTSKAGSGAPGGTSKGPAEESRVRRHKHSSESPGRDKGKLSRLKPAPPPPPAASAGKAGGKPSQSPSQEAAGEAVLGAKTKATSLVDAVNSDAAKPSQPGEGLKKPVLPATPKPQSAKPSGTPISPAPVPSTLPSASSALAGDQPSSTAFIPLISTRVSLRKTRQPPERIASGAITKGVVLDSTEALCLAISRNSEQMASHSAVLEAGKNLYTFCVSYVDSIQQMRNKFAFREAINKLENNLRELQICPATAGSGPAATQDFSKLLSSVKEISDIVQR

For the molecule `Cc1nc(Nc2ncc(C(=O)Nc3c(C)cccc3Cl)s2)cc(N2CCN(C(=O)CCOCCOCCOCCNc3cccc4c3C(=O)N(C3CCC(=O)NC3=O)C4=O)CC2)n1` (stereo not drawn) [SIAIS151067, N-(2-chloro-6-methylphenyl)-2-((6-(4-(3-(2-(2-(2-((2-(2,6-dioxopiperidin-3-yl)-1,3-dioxoisoindolin-4-yl)amino)ethoxy)ethoxy)ethoxy)propanoyl)piperazin-1-yl)-2-methylpyrimidin-4-yl)amino)thiazole-5-carboxamide], the concentration for half-maximal inhibition (IC50) (as a rule, the concentration that gives 50% inhibition) in experiment [1] was 14.8 nM; in experiment [2], greater than 10000 nM; in experiment [3] it was greater than 10000 nM. Further, the DC50 (commonly the concentration at which degradation of the target reaches its halfway point) was in the range of 10 to 100 nM in experiment [4] and 1 to 10 nM in experiment [5].
On to `Cc1nc(Nc2ncc(C(=O)Nc3c(C)cccc3Cl)s2)cc(N2CCN(C(=O)CCOCCOCCOCCOCCNc3cccc4c3C(=O)N(C3CCC(=O)NC3=O)C4=O)CC2)n1` (stereo not drawn) [SIAIS151068, N-(2-chloro-6-methylphenyl)-2-((6-(4-(1-((2-(2,6-dioxopiperidin-3-yl)-1,3-dioxoisoindolin-4-yl)amino)-3,6,9,12-tetraoxapentadecan-15-oyl)piperazin-1-yl)-2-methylpyrimidin-4-yl)amino)thiazole-5-carboxamide], for which the concentration for half-maximal inhibition (IC50) in experiment [1] is 40.4 nM; in experiment [2] it was greater than 10000 nM; in experiment [3], greater than 10000 nM. The DC50 in experiment [4] is 10 to 100 nM; in experiment [5], 1 to 10 nM.
For `Cc1nc(Nc2ncc(C(=O)Nc3c(C)cccc3Cl)s2)cc(N2CCN(C(=O)CCOCCOCCOCCOCCOCCNc3cccc4c3C(=O)N(C3CCC(=O)NC3=O)C4=O)CC2)n1` (stereo not drawn) [SIAIS151069, N-(2-chloro-6-methylphenyl)-2-((6-(4-(1-((2-(2,6-dioxopiperidin-3-yl)-1,3-dioxoisoindolin-4-yl)amino)-3,6,9,12,15-pentaoxaoctadecan-18-oyl)piperazin-1-yl)-2-methylpyrimidin-4-yl)amino)thiazole-5-carboxamide], the half-maximal inhibitory concentration (IC50) in experiment [1] was 31.9 nM; in experiment [2] it was greater than 10000 nM; in experiment [3], greater than 10000 nM. Moreover, the DC50 in experiment [4] is 10 to 100 nM; in experiment [5], 1 to 10 nM.
`Cc1nc(Nc2ncc(C(=O)Nc3c(C)cccc3Cl)s2)cc(N2CCN(C(=O)CCCNc3cccc4c3C(=O)N(C3CCC(=O)NC3=O)C4=O)CC2)n1` (stereo not drawn) [SIAIS151070, N-(2-chloro-6-methylphenyl)-2-((6-(4-(4-((2-(2,6-dioxopiperidin-3-yl)-1,3-dioxoisoindolin-4-yl)amino)butanoyl)piperazin-1-yl)-2-methylpyrimidin-4-yl)amino)thiazole-5-carboxamide]: the figures for the IC50 in experiment [1], in experiment [2] and in experiment [3] were 5.5 nM, greater than 10000 nM and greater than 10000 nM, respectively. Besides, the DC50 in experiment [4] and in experiment [5] was 1 to 10 nM throughout.
On to `Cc1nc(Nc2ncc(C(=O)Nc3c(C)cccc3Cl)s2)cc(N2CCN(C(=O)CCCCNc3cccc4c3C(=O)N(C3CCC(=O)NC3=O)C4=O)CC2)n1` (stereo not drawn) [SIAIS151071, N-(2-chloro-6-methylphenyl)-2-((6-(4-(5-((2-(2,6-dioxopiperidin-3-yl)-1,3-dioxoisoindolin-4-yl)amino)pentanoyl)piperazin-1-yl)-2-methylpyrimidin-4-yl)amino)thiazole-5-carboxamide], for which the values for the IC50 in experiment [1], in experiment [2] and in experiment [3] were 0.55 nM, greater than 10000 nM and greater than 10000 nM, respectively. The DC50 is 1 to 10 nM in experiment [4] and less than 1 nM in experiment [5].
Regarding `Cc1nc(Nc2ncc(C(=O)Nc3c(C)cccc3Cl)s2)cc(N2CCN(C(=O)CNc3cccc4c3C(=O)N(C3CCC(=O)NC3=O)C4=O)CC2)n1` (stereo not drawn) [SIAIS151072, N-(2-chloro-6-methylphenyl)-2-((6-(4-((2-(2,6-dioxopiperidin-3-yl)-1,3-dioxoisoindolin-4-yl)glycyl)piperazin-1-yl)-2-methylpyrimidin-4-yl)amino)thiazole-5-carboxamide], the IC50 in experiment [1] is 1.22 nM; in experiment [2], greater than 10000 nM; in experiment [3] it was greater than 10000 nM. Further, the figures for the DC50 in experiment [4] and in experiment [5] were 1 to 10 nM and less than 1 nM, respectively.
Turning to `Cc1nc(Nc2ncc(C(=O)Nc3c(C)cccc3Cl)s2)cc(N2CCN(C(=O)CCCCCNc3cccc4c3C(=O)N(C3CCC(=O)NC3=O)C4=O)CC2)n1` (stereo not drawn) [SIAIS151075, N-(2-chloro-6-methylphenyl)-2-((6-(4-(6-((2-(2,6-dioxopiperidin-3-yl)-1,3-dioxoisoindolin-4-yl)amino)hexanoyl)piperazin-1-yl)-2-methylpyrimidin-4-yl)amino)thiazole-5-carboxamide], the IC50 in experiment [1] was 0.03 nM; in experiment [2], greater than 10000 nM; in experiment [3] it was greater than 10000 nM. The DC50 in experiment [4] and in experiment [5] was 1 to 10 nM in each case.
In the case of `Cc1nc(Nc2ncc(C(=O)Nc3c(C)cccc3Cl)s2)cc(N2CCN(C(=O)CCOCCOCCOCCOCCC(=O)N[C@H](C(=O)N3C[C@H](O)C[C@H]3C(=O)NCc3ccc(-c4scnc4C)cc3)C(C)(C)C)CC2)n1` [SIAIS151078, N-(2-chloro-6-methylphenyl)-2-((6-(4-((S)-18-((2S,4R)-4-hydroxy-2-((4-(4-methylthiazol-5-yl)benzyl)carbamoyl)pyrrolidine-1-carbonyl)-19,19-dimethyl-16-oxo-4,7,10,13-tetraoxa-17-azaicosanoyl)piperazin-1-yl)-2-methylpyrimidin-4-yl)amino)thiazole-5-carboxamide], the IC50 in experiment [1] is 2160 nM; in experiment [2], greater than 10000 nM; in experiment [3] it was greater than 10000 nM. Besides, the results for the DC50 in experiment [4] and in experiment [5] were greater than 1000 nM and 100 to 1000 nM, respectively.
With `COc1cc(Nc2c(C#N)cnc3cc(OCCCN4CCN(C(=O)CCOCCOCCNc5cccc6c5C(=O)N(C5CCC(=O)NC5=O)C6=O)CC4)c(OC)cc23)c(Cl)cc1Cl` (stereo not drawn) [SIAIS151158, 4-((2,4-dichloro-5-methoxyphenyl)amino)-7-(3-(4-(3-(2-(2-((2-(2,6-dioxopiperidin-3-yl)-1,3-dioxoisoindolin-4-yl)amino)ethoxy)ethoxy)propanoyl)piperazin-1-yl)propoxy)-6-methoxyquinoline-3-carbonitrile], the IC50 in experiment [1] is 3130 nM; in experiment [2], greater than 10000 nM; in experiment [3], greater than 10000 nM. The DC50 in experiment [4] and in experiment [5] was 10 to 100 nM in each case.
On to `COc1cc(Nc2c(C#N)cnc3cc(OCCCN4CCN(C(=O)CCOCCOCCOCCNc5cccc6c5C(=O)N(C5CCC(=O)NC5=O)C6=O)CC4)c(OC)cc23)c(Cl)cc1Cl` (stereo not drawn) [SIAIS151159, 4-((2,4-dichloro-5-methoxyphenyl)amino)-7-(3-(4-(3-(2-(2-(2-((2-(2,6-dioxopiperidin-3-yl)-1,3-dioxoisoindolin-4-yl)amino)ethoxy)ethoxy)ethoxy)propanoyl)piperazin-1-yl)propoxy)-6-methoxyquinoline-3-carbonitrile], for which the IC50 is 4260 nM in experiment [1], greater than 10000 nM in experiment [2] and greater than 10000 nM in experiment [3]. The DC50 in experiment [4] and in experiment [5] was 10 to 100 nM throughout.
In the case of `COc1cc(Nc2c(C#N)cnc3cc(OCCCN4CCN(C(=O)CCOCCOCCOCCOCCNc5cccc6c5C(=O)N(C5CCC(=O)NC5=O)C6=O)CC4)c(OC)cc23)c(Cl)cc1Cl` (stereo not drawn) [SIAIS151160, 4-((2,4-dichloro-5-methoxyphenyl)amino)-7-(3-(4-(1-((2-(2,6-dioxopiperidin-3-yl)-1,3-dioxoisoindolin-4-yl)amino)-3,6,9,12-tetraoxapentadecan-15-oyl)piperazin-1-yl)propoxy)-6-methoxyquinoline-3-carbonitrile], the figures for the IC50 in experiment [1], in experiment [2] and in experiment [3] were 4650 nM, greater than 10000 nM and greater than 10000 nM, respectively. For the same molecule, the DC50 in experiment [4] and in experiment [5] was 10 to 100 nM in each case.
Regarding `COc1cc(Nc2c(C#N)cnc3cc(OCCCN4CCN(C(=O)CCOCCOCCOCCOCCOCCNc5cccc6c5C(=O)N(C5CCC(=O)NC5=O)C6=O)CC4)c(OC)cc23)c(Cl)cc1Cl` (stereo not drawn) [SIAIS151161, 4-((2,4-dichloro-5-methoxyphenyl)amino)-7-(3-(4-(1-((2-(2,6-dioxopiperidin-3-yl)-1,3-dioxoisoindolin-4-yl)amino)-3,6,9,12,15-pentaoxaoctadecan-18-oyl)piperazin-1-yl)propoxy)-6-methoxyquinoline-3-carbonitrile], the IC50 in experiment [1] is 7260 nM; in experiment [2], greater than 10000 nM; in experiment [3], greater than 10000 nM. The DC50 in experiment [4] and in experiment [5] was 100 to 1000 nM each time.
